Assay results from US12371454B2, “Cyclic peptide compound having Kras inhibitory action” (priority 2019, dated 2025).
Starred links: 1 amine or outer side, 2 acyl side, 3 side chain; linkers in the order of their positions; H or OH if unused. Positions of bridges follow the written chain, without caps; N, C: chain ends. Non-standard residues stand in square brackets, D forms with d. Residues, ends and D or L forms follow the SMILES beside them. *: point of attachment. hPhe(3-Cl-4-CF3) = N[C@@H](CCc1ccc(C(F)(F)F)c(Cl)c1)C(=O)O; hPhe(3-F,4-CF3) = N[C@@H](CCc1ccc(C(F)(F)F)c(F)c1)C(=O)O; NMePhe(4-CF3) = CN[C@@H](Cc1ccc(C(F)(F)F)cc1)C(=O)O; 3Oxa8azabicyclo(3.2.1)octane = C1CC2COCC1N2*; NEtPhe(4-Me) = CCN[C@@H](Cc1ccc(C)cc1)C(=O)O; NMedβ3hAla = C[C@H](CC(=O)[*:2])N(C)[*:1]; NMeGly(cPent) = CN[C@H](C(=O)O)C1CCCC1; NMeCha = CN[C@@H](CC1CCCCC1)C(=O)O; cisHyp = O=C(O)[C@@H]1C[C@H](O)CN1; Hyp = O=C(O)[C@@H]1C[C@@H](O)CN1; NEtLeu = CCN[C@@H](CC(C)C)C(=O)O; NMeChg = CN[C@H](C(=O)O)C1CCCCC1; Gly(cBu) = N[C@H](C(=O)O)C1CCC1; NMeD = CN[C@@H](CC(=O)O)C(=O)O; NMeL = CN[C@@H](CC(C)C)C(=O)O; NMeNva = CCC[C@H](NC)C(=O)O; NMeV = CN[C@H](C(=O)O)C(C)C; d(β3hA) = C[C@@H](N)CC(=O)O; NMeS = CN[C@@H](CO)C(=O)O; Morpholide = C1CN(*)CCO1; NMeA = CN[C@@H](C)C(=O)O; Piperidide = C1CCN(*)CC1; Pyrrolidide = C1CCN(*)C1; Ac5c = NC1(C(=O)O)CCCC1; Aze = O=C(O)[C@@H]1CCN1; Ethyl(2,2-F2) = FC(F)C*; X30 = COc1cccc(C*)c1; Ethyl(2-OH) = OCC*; X27 = Clc1ccccc1C*; NEtG = CCNCC(=O)O; Sar = CNCC(=O)O; Propyl = CCC*

System: Human pancreatic cancer cell line AsPC-1
Test: Measurement of AsPC-1 cell growth inhibition (AsPC-1 CGI)
Type: cell-based
Details: 96 h
How it was run: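 AsPC-1 cells in 15% FBS RPMI-1640 were exposed to test compound for 96 hours at 37° C, with CellTiter-Glo as endpoint.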

SMILES | IC50 [nM]
CC[C@H](C)[C@@H]1NC(=O)[C@H](CC(C)C)N(C)C(=O)C[C@@H](C(=O)N2CCCC2)N(C)C(=O)[C@H](C(C)C)N(C)C(=O)C2(CCCC2)NC(=O)[C@@H]2CCCN2C(=O)[C@H](CCc2ccc(C(F)(F)F)c(Cl)c2)NC(=O)CN(C)C(=O)[C@H](CC2CCCCC2)N(C)C(=O)[C@@H]2CCN2C(=O)CN(C)C1=O [Compound 1670] ([NMeL]I[Sar][Aze][NMeCha][Sar][hPhe(3-Cl-4-CF3)]P[Ac5c][NMeV][NMeD]-Pyrrolidide; lactam N-11) | 100 to 500
CC[C@H](C)[C@@H]1NC(=O)[C@H](CC(C)C)N(C)C(=O)C[C@@H](C(=O)N2CCCCC2)N(C)C(=O)[C@H](C2CCCCC2)N(C)C(=O)C2(CCCC2)NC(=O)[C@@H]2C[C@@H](OCCO)CN2C(=O)[C@H](CCc2ccc(C(F)(F)F)c(Cl)c2)NC(=O)CN(C)C(=O)[C@H](CC2CCCCC2)N(C)C(=O)CN(C)C(=O)CN(C)C1=O [Compound 2122, (3S,9S,18S,21S,25S,28S,34S,36R)-3-[2-[3-chloro-4-(trifluoromethyl)phenyl]ethyl]-28-cyclohexyl-9-(cyclohexylmethyl)-36-(2-hydroxyethoxy)-21-isobutyl-7,10,13,16,22,26,29-heptamethyl-18-[(1S)-1-methylpropyl]-25-(piperidine-1-carbonyl)spiro[1,4,7,10,13,16,19,22,26,29,32-undecazabicyclo[32.3.0]heptatriacontane-31,1′-cyclopentane]-2,5,8,11,14,17,20,23,27,30,33-undecone] ([NMeL]I[Sar][Sar][NMeCha][Sar][hPhe(3-Cl-4-CF3)][Hyp](Ethyl(2-OH))[Ac5c][NMeChg][NMeD]-Piperidide; lactam N-11) | 50 to 100
CCC[C@H]1C(=O)N2CC[C@H]2C(=O)N(C)[C@@H](CC2CCCCC2)C(=O)N(C)CC(=O)N[C@@H](CCc2ccc(C(F)(F)F)c(Cl)c2)C(=O)N2CCC[C@H]2C(=O)NC2(CCCC2)C(=O)N(C)[C@@H](C(C)C)C(=O)N(C)[C@H](C(=O)N2CCCCC2)CC(=O)N(C)[C@@H](CC(C)C)C(=O)N[C@@H]([C@@H](C)CC)C(=O)N1C [Compound 1601] ([NMeL]I[NMeNva][Aze][NMeCha][Sar][hPhe(3-Cl-4-CF3)]P[Ac5c][NMeV][NMeD]-Piperidide; lactam N-11) | 100 to 500
CC[C@H](C)[C@@H]1NC(=O)[C@H](CC(C)C)N(C)C(=O)C[C@@H](C(=O)N2CCOCC2)N(C)C(=O)[C@H](C2CCCC2)N(C)C(=O)C2(CCCC2)NC(=O)[C@@H]2CCCN2C(=O)[C@H](CCc2ccc(C(F)(F)F)c(Cl)c2)NC(=O)CN(CC)C(=O)[C@H](C2CCCC2)N(C)C(=O)[C@@H]2CCN2C(=O)[C@H](C)N(C)C1=O [Compound 1142] ([NMeL]I[NMeA][Aze][NMeGly(cPent)][NEtG][hPhe(3-Cl-4-CF3)]P[Ac5c][NMeGly(cPent)][NMeD]-Morpholide; lactam N-11) | 20 to 50
CC[C@H](C)[C@@H]1NC(=O)[C@H](CC(C)C)N(C)C(=O)C[C@@H](C(=O)N2CCCCC2)N(C)C(=O)[C@H](C2CCCCC2)N(C)C(=O)C2(CCCC2)NC(=O)[C@@H]2C[C@H](OCC(F)F)CN2C(=O)[C@H](CCc2ccc(C(F)(F)F)c(Cl)c2)NC(=O)CN(C)C(=O)[C@H](CC2CCCCC2)N(C)C(=O)CN(C)C(=O)CN(C)C1=O [Compound 2123] ([NMeL]I[Sar][Sar][NMeCha][Sar][hPhe(3-Cl-4-CF3)][cisHyp](Ethyl(2,2-F2))[Ac5c][NMeChg][NMeD]-Piperidide; lactam N-11) | 100 to 500
CCCOC[C@H]1C(=O)N(C)CC(=O)N[C@@H](CCc2ccc(C(F)(F)F)c(Cl)c2)C(=O)N2CCC[C@H]2C(=O)NC2(CCCC2)C(=O)N(C)[C@@H](C2CCCC2)C(=O)N(C)[C@H](C(=O)N2C3CCC2COC3)CC(=O)N(CC)[C@@H](CC(C)C)C(=O)N[C@@H]([C@@H](C)CC)C(=O)N[C@@H](C)C(=O)N2CC[C@H]2C(=O)N1C [Compound 1167] ([NEtLeu]IA[Aze][NMeS](Propyl)[Sar][hPhe(3-Cl-4-CF3)]P[Ac5c][NMeGly(cPent)][NMeD]-{3Oxa8azabicyclo(3.2.1)octane}; lactam N-11) | 100 to 500
CC[C@H](C)[C@@H]1NC(=O)[C@H](C2CCCC2)N(C)C(=O)C[C@@H](C(=O)N2CCCCC2)N(C)C(=O)[C@H](C(C)C)N(C)C(=O)C2(CCCC2)NC(=O)[C@@H]2CCCN2C(=O)[C@H](CCc2ccc(C(F)(F)F)c(Cl)c2)NC(=O)CN(C)C(=O)[C@H](CC2CCCCC2)N(C)C(=O)[C@@H]2CCN2C(=O)[C@H](C)N(C)C1=O [Compound 225] ([NMeGly(cPent)]I[NMeA][Aze][NMeCha][Sar][hPhe(3-Cl-4-CF3)]P[Ac5c][NMeV][NMeD]-Piperidide; lactam N-11) | 100 to 500
CC[C@H](C)[C@@H]1NC(=O)[C@H](CC(C)C)N(C)C(=O)C[C@@H](C(=O)N2C3CCC2COC3)N(C)C(=O)[C@H](C2CCCC2)N(C)C(=O)C2(CCCC2)NC(=O)[C@@H]2CCCN2C(=O)[C@H](CCc2ccc(C(F)(F)F)c(Cl)c2)NC(=O)CN(C)C(=O)[C@H](Cc2ccc(C)cc2)N(CC)C(=O)[C@@H]2CCN2C(=O)[C@H](C)N(C)C1=O [Compound 1236] ([NMeL]I[NMeA][Aze][NEtPhe(4-Me)][Sar][hPhe(3-Cl-4-CF3)]P[Ac5c][NMeGly(cPent)][NMeD]-{3Oxa8azabicyclo(3.2.1)octane}; lactam N-11) | 20 to 50
CC(C)C[C@H]1C(=O)N[C@@H](C2CCC2)C(=O)N(C)[C@@H](C)C(=O)N2CC[C@H]2C(=O)N(C)[C@@H](CC2CCCCC2)C(=O)N(C)CC(=O)N[C@@H](CCc2ccc(C(F)(F)F)c(Cl)c2)C(=O)N2CCC[C@H]2C(=O)NC2(CCCC2)C(=O)N(C)[C@@H](C(C)C)C(=O)N[C@H](C)CC(=O)N1C [Compound 580] (cyclo([Ac5c][NMeV][d(β3hA)][NMeL][Gly(cBu)][NMeA][Aze][NMeCha][Sar][hPhe(3-Cl-4-CF3)]P)) | 100 to 500
CC[C@H](C)[C@@H]1NC(=O)[C@H](CC(C)C)N(C)C(=O)C[C@@H](C(=O)N2CCCCC2)N(C)C(=O)[C@H](C2CCCCC2)N(C)C(=O)C2(CCCC2)NC(=O)[C@@H]2CCCN2C(=O)[C@H](CCc2ccc(C(F)(F)F)c(Cl)c2)NC(=O)CN(C)C(=O)[C@H](CC2CCCCC2)N(C)C(=O)CN(C)C(=O)CN(C)C1=O [Compound 558] ([NMeL]I[Sar][Sar][NMeCha][Sar][hPhe(3-Cl-4-CF3)]P[Ac5c][NMeChg][NMeD]-Piperidide; lactam N-11) | 20 to 50
CC[C@H](C)[C@@H]1NC(=O)[C@H](CC(C)C)N(C)C(=O)C[C@@H](C)N(C)C(=O)[C@H](C2CCCC2)N(C)C(=O)C2(CCCC2)NC(=O)[C@@H]2CCCN2C(=O)[C@H](CCc2ccc(C(F)(F)F)c(F)c2)NC(=O)CN(C)C(=O)[C@H](C2CCCC2)N(C)C(=O)[C@@H]2CCN2C(=O)[C@H](C)N(C)C1=O [Compound 386] (cyclo([Ac5c][NMeGly(cPent)][NMedβ3hAla][NMeL]I[NMeA][Aze][NMeGly(cPent)][Sar][hPhe(3-F,4-CF3)]P)) | 20 to 50
CC[C@H](C)[C@@H]1NC(=O)[C@H](CC(C)C)N(C)C(=O)C[C@@H](C(=O)N2CCOCC2)N(C)C(=O)[C@H](C2CCCC2)N(C)C(=O)C2(CCCC2)NC(=O)[C@@H]2CCCN2C(=O)[C@H](CCc2ccc(C(F)(F)F)c(Cl)c2)NC(=O)CN(C)C(=O)[C@H](C2CCCC2)N(C)C(=O)[C@@H]2CCN2C(=O)[C@H](C)NC1=O [Compound 1309] ([NMeL]IA[Aze][NMeGly(cPent)][Sar][hPhe(3-Cl-4-CF3)]P[Ac5c][NMeGly(cPent)][NMeD]-Morpholide; lactam N-11) | 50 to 100
CC[C@H](C)[C@@H]1NC(=O)[C@H](CC(C)C)N(C)C(=O)C[C@@H](C)N(C)C(=O)[C@H](C2CCCC2)N(C)C(=O)C2(CCCC2)NC(=O)[C@@H]2CCCN2C(=O)[C@H](CCc2ccc(C(F)(F)F)c(F)c2)NC(=O)CN(C)C(=O)[C@H](CC2CCCCC2)N(C)C(=O)[C@@H]2CCN2C(=O)[C@H](C)N(C)C1=O [Compound 49] (cyclo([Ac5c][NMeGly(cPent)][NMedβ3hAla][NMeL]I[NMeA][Aze][NMeCha][Sar][hPhe(3-F,4-CF3)]P)) | 20 to 50
CC[C@H](C)[C@@H]1NC(=O)[C@H](CC(C)C)N(C)C(=O)C[C@@H](C(=O)N2CCCCC2)N(C)C(=O)[C@H](CC(C)C)N(C)C(=O)C2(CCCC2)NC(=O)[C@@H]2C[C@@H](OCc3ccccc3Cl)CN2C(=O)[C@H](CCc2ccc(C(F)(F)F)c(F)c2)NC(=O)CN(C)C(=O)[C@H](CC2CCCCC2)N(C)C(=O)CN(C)C(=O)CN(C)C1=O [Compound 2138] ([NMeL]I[Sar][Sar][NMeCha][Sar][hPhe(3-F,4-CF3)][Hyp](X27)[Ac5c][NMeL][NMeD]-Piperidide; lactam N-11) | 100 to 500
CC[C@H](C)[C@@H]1NC(=O)[C@H](CC(C)C)N(C)C(=O)C[C@@H](C)N(C)C(=O)[C@H](C2CCCCC2)N(C)C(=O)C2(CCCC2)NC(=O)[C@@H]2CCCN2C(=O)[C@H](CCc2ccc(C(F)(F)F)c(Cl)c2)NC(=O)CN(C)C(=O)[C@H](Cc2ccc(C(F)(F)F)cc2)N(C)C(=O)[C@@H]2CCN2C(=O)[C@H](C)N(C)C1=O [Compound 348] (cyclo([Ac5c][NMeChg][NMedβ3hAla][NMeL]I[NMeA][Aze][NMePhe(4-CF3)][Sar][hPhe(3-Cl-4-CF3)]P)) | 100 to 500
CC[C@H](C)[C@@H]1NC(=O)[C@H](CC(C)C)N(C)C(=O)C[C@@H](C(=O)N2CCCCC2)N(C)C(=O)[C@H](CC(C)C)N(C)C(=O)C2(CCCC2)NC(=O)[C@@H]2C[C@@H](OCc3cccc(OC)c3)CN2C(=O)[C@H](CCc2ccc(C(F)(F)F)c(F)c2)NC(=O)CN(C)C(=O)[C@H](CC2CCCCC2)N(C)C(=O)CN(C)C(=O)CN(C)C1=O [Compound 2131] ([NMeL]I[Sar][Sar][NMeCha][Sar][hPhe(3-F,4-CF3)][Hyp](X30)[Ac5c][NMeL][NMeD]-Piperidide; lactam N-11) | 100 to 500
CCCOC[C@H]1C(=O)N(C)CC(=O)N[C@@H](CCc2ccc(C(F)(F)F)c(Cl)c2)C(=O)N2CCC[C@H]2C(=O)NC2(CCCC2)C(=O)N(C)[C@@H](C2CCCCC2)C(=O)N(C)[C@H](C(=O)N2CCOCC2)CC(=O)N(C)[C@@H](CC(C)C)C(=O)N[C@@H]([C@@H](C)CC)C(=O)N(C)CC(=O)N(C)CC(=O)N1C [Compound 1966] ([NMeL]I[Sar][Sar][NMeS](Propyl)[Sar][hPhe(3-Cl-4-CF3)]P[Ac5c][NMeChg][NMeD]-Morpholide; lactam N-11) | 50 to 100
